≈ marks a conversion by molar mass, not a printed value. Calls of active or inactive are those of the source. The calls are words filed in the database; no cut-off is given here.
Legend:
[1] = test system: Peptidoglycan; test: Potency index, ratio of vancomycin Ka to test compound Ka for Ac-Lys(Gly5)-D-Ala-D-Ala lipid II model peptide moiety
[2] = test system: Escherichia coli; test: Induction of cytoplasmic membrane permeabilization in Escherichia coli AB1157 at 16 ug/ml measured for 40 mins by PI/NPN staining based assay; type: functional, organism-based; details: dose 16.0 µg/ml
[3] = Toxicity in BALB/c mouse infected with methicillin-resistant Staphylococcus aureus MRSA252 assessed as survival rate at 10 to 20 mg/kg, iv for 7 days; type: organism-based; details: in vivo, 168 h, dose 10-20 mg/kg, time 7 day
[4] = test system: Staphylococcus epidermidis; test: Antibacterial activity against methicillin-resistant Staphylococcus epidermidis clinical isolate incubated for 16 to 24 hrs by CLSI based broth microdilution method; type: functional; details: time 16-24 hrs
[5] = test system: Peptidoglycan; test: Binding affinity to Ac-Lys(Gly5)-D-Ala-D-Ala lipid II model peptide moiety assessed as change in Gibb's free energy by ITC analysis
[6] = test system: Klebsiella pneumoniae; test: Antibacterial activity against Klebsiella pneumoniae clinical isolate incubated for 16 to 24 hrs by CLSI based broth microdilution method; type: functional; details: time 16-24 hrs
[7] = test system: Acinetobacter baumannii; test: Potency index, ratio of Vancomycin MIC to test compound MIC for Carbapenem-resistant Acinetobacter baumannii clinical isolate incubated for 16 to 24 hrs by CLSI based broth microdilution method; type: functional; details: time 16-24 hrs
[8] = test system: Escherichia coli; test: Inhibition of peptidoglycan biosynthesis in Escherichia coli AB1157 assessed as increase in accumulation of Park's nucleotide at 16 ug/ml incubated for 2 hrs by RP-HPLC analysis; type: functional, organism-based; details: dose 16.0 µg/ml
[9] = test system: Staphylococcus aureus; test: Induction of membrane disruption in Staphylococcus aureus MRSA252 assessed as leakage of protoplasm content at 1 to 8 ug/ml incubated for 4 to 24 hrs by SEM analysis; type: functional, organism-based; details: dose 1-8 µg/ml, time 4-24 hrs
[10] = AUC (infinity) in CD-1 mouse at 10 mg/kg, iv measured for 24 hrs by UPLC analysis; type: ADME, organism-based; details: in vivo
[11] = test system: Peptidoglycan; test: Binding affinity to Ac-Lys(Ac)-D-Ala-D-Ala lipid II model peptide moiety assessed as change in Gibb's free energy by ITC analysis
[12] = test system: Staphylococcus aureus; test: Antibacterial activity against Staphylococcus aureus Mu50 at 1:1 ratio of compound and FPP at […] incubated for 16 to 24 hrs by absorbance based assay; type: functional, organism-based; details: dose 128.0 µg/ml, time 16-24 hrs
[13] = test system: Escherichia coli; test: Bactericidal activity against Escherichia coli AB1157 assessed as reduction in bacterial count measured after 24 hrs by time kill assay; type: functional, organism-based
[14] = test system: Peptidoglycan; test: Binding affinity to Ac-Lys(D-isoAsp)-D-Ala-D-Ala lipid II model peptide moiety assessed as association constant by ITC analysis
[15] = test system: Staphylococcus aureus; test: Post-antibiotic effect in Staphylococcus aureus MRSA252 assessed as time of effect at 20 times; type: functional
[16] = test system: Enterococcus faecium; test: Antibacterial activity against Enterococcus faecium clinical isolate incubated for 16 to 24 hrs by CLSI based broth microdilution method; type: functional; details: time 16-24 hrs
[17] = test system: Acinetobacter baumannii; test: Potency index, ratio of Norvancomycin MIC to test compound MIC for Carbapenem-resistant Acinetobacter baumannii clinical isolate incubated for 16 to 24 hrs by CLSI based broth microdilution method; type: functional; details: time 16-24 hrs
[18] = test system: Escherichia coli; test: Potency index, ratio of Norvancomycin MIC to test compound MIC for Escherichia coli […] incubated for 16 to 24 hrs by CLSI based broth microdilution method; type: functional; details: time 16-24 hrs
[19] = test system: Staphylococcus aureus; test: Induction of drug resistance in vancomycin-sensitive Staphylococcus aureus MRSA252 assessed as change in MIC measured after 16 days of serial passages by broth microdilution method; type: functional, organism-based; details: time 16.0 day
[20] = test system: Escherichia coli; test: Induction of cytoplasmic membrane depolarization in Escherichia coli AB1157 at 5 uM by DiSC3(5) staining based analysis; type: functional, organism-based
[21] = test system: Escherichia coli; test: Bactericidal activity against Escherichia coli AB1157 assessed as reduction in bacterial count at 8 times MIC measured after 24 hrs by time kill assay; type: functional
[22] = test system: Staphylococcus hominis; test: Antibacterial activity against methicillin-resistant Staphylococcus hominis clinical isolate incubated for 16 to 24 hrs by CLSI based broth microdilution method; type: functional; details: time 16-24 hrs
[23] = test system: Peptidoglycan; test: Binding affinity to Ac-Lys(Gly5)-D-Ala-D-Ala lipid II model peptide moiety assessed as association constant by ITC analysis
[24] = test system: Enterococcus faecium; test: Bacteriostatic activity against Enterococcus faecium SC-2022-D2-059 harboring VanA phenotype at 1 to 8 times MIC measured after 24 hrs by time kill assay; type: functional, organism-based
[25] = test system: Staphylococcus aureus; test: Induction of cytoplasmic membrane depolarization in methicillin-resistant Staphylococcus aureus MRSA252 by DiSC3(5) staining based analysis; type: functional, organism-based
[26] = test system: Enterococcus faecium; test: Potency index, ratio of Vancomycin MIC to test compound MIC for vancomycin-resistant Enterococcus faecium incubated for 16 to 24 hrs by CLSI based broth microdilution method; type: functional; details: time 16-24 hrs
[27] = test system: Peptidoglycan; test: Binding affinity to Ac-Lys(Ac)-D-Ala-D-Ala lipid II model peptide moiety assessed as association constant by ITC analysis
[28] = test system: Enterococcus faecium; test: Antibacterial activity against vancomycin-resistant Enterococcus faecium harboring VanB phenotype incubated for 16 to 24 hrs by CLSI based broth microdilution method; type: functional; details: time 16-24 hrs
[29] = test system: Staphylococcus haemolyticus; test: Antibacterial activity against methicillin-resistant Staphylococcus haemolyticus clinical isolate incubated for 16 to 24 hrs by CLSI based broth microdilution method; type: functional; details: time 16-24 hrs
[30] = test system: Escherichia coli; test: Bactericidal activity against Escherichia coli AB1157 assessed as reduction in bacterial count at 4 times MIC measured after 24 hrs by time kill assay; type: functional
[31] = Volume of distribution at steady state in CD-1 mouse at 10 mg/kg, iv measured for 24 hrs by UPLC analysis; type: ADME, organism-based; details: in vivo, read-out: Vdss
[32] = test system: Peptidoglycan; test: Potency index, ratio of vancomycin Ka to test compound Ka for Ac-Lys(D-isoAsp)-D-Ala-D-Ala lipid II model peptide moiety assessed as association constant by ITC analysis
[33] = test system: Escherichia coli; test: Induction of inner membrane permeabilization in Escherichia coli AB1157 measured for 50 mins by PI staining based analysis; type: functional, organism-based; details: dose 1-128 µg/ml
[34] = test system: Enterococcus faecalis; test: Induction of cytoplasmic membrane depolarization in Enterococcus faecalis ATCC29212 by DiSC3(5) staining based analysis; type: functional, organism-based
[35] = test system: Staphylococcus aureus; test: Induction of membrane disruption in Staphylococcus aureus MRSA252 assessed as leakage of protoplasm content at 1 to 8 ug/ml incubated for 4 to 24 hrs by TEM analysis; type: functional, organism-based; details: dose 1-8 µg/ml, time 4-24 hrs
[36] = test system: Staphylococcus aureus; test: Antibacterial activity against methicillin-susceptible Staphylococcus aureus incubated for 16 to 24 hrs by CLSI based broth microdilution method; type: functional; details: time 16-24 hrs
[37] = test system: Acinetobacter baumannii; test: Antibacterial activity against Carbapenem-resistant Acinetobacter baumannii clinical isolate incubated for 16 to 24 hrs by CLSI based broth microdilution method; type: functional; details: time 16-24 hrs
[38] = test system: Staphylococcus aureus; test: Antibacterial activity against methicillin-resistant Staphylococcus aureus clinical isolate incubated for 16 to 24 hrs by CLSI based broth microdilution method; type: functional; details: time 16-24 hrs
[39] = test system: Staphylococcus aureus; test: Inhibition of peptidoglycan biosynthesis in Staphylococcus aureus MRSA252 assessed as increase in accumulation of Park's nucleotide at 0.5 ug/ml incubated for 2 hrs by RP-HPLC analysis; type: functional, organism-based; details: dose 0.5 µg/ml
[40] = test system: Staphylococcus aureus; test: Antibacterial activity against Staphylococcus aureus Mu50 at 1:1 ratio of compound and phosphatidylglycerol at […] incubated for 16 to 24 hrs by absorbance based assay; type: functional, organism-based; details: dose 128.0 µg/ml, time 16-24 hrs

Q: With CC(C)C[C@@H](N)C(=O)N[C@H]1C(=O)N[C@@H](CC(N)=O)C(=O)N[C@H]2C(=O)N[C@H]3C(=O)N[C@H](C(=O)N[C@H](C(=O)NCc4ccc(-c5ccc(CNC(=N)N)cc5)cc4)c4cc(O)cc(O)c4-c4cc3ccc4O)[C@H](O)c3ccc(c(Cl)c3)Oc3cc2cc(c3O[C@@H]2O[C@H](CO)[C@@H](O)[C@H](O)[C@H]2O[C@H]2C[C@](C)(N)[C@H](O)[C@H](C)O2)Oc2ccc(cc2Cl)[C@H]1O as the molecule, how does the Ratio [1] read?
A: 1.7

Q: And the Activity [2]?
A: Active

Q: What about the Activity [3] of the same molecule?
A: 100%

Q: What about the MIC [4] of the same molecule?
A: ≤ 0.03 µg/mL

Q: And the deltaG [5]?
A: -8.69 kcal/mol

Q: And the MIC [6]?
A: > 128 µg/mL

Q: What about the Ratio [7] of the same molecule?
A: 2

Q: What about the Activity [8] of the same molecule?
A: Active

Q: And the Activity [9]?
A: Active

Q: What about the AUC(0-inf) [10] of the same molecule?
A: 40000 ng·h/mL

Q: What about the deltaG [11] of the same molecule?
A: -8.35 kcal/mol

Q: What about the Activity [12] of the same molecule?
A: Active

Q: And the Activity [13]?
A: Dose-Dependent Effect

Q: And the Ka [14]?
A: 687000 M⁻¹

Q: And the Time [15]?
A: 23 h

Q: And the MIC [16]?
A: ≤ 0.03 µg/mL

Q: And the Ratio [17]?
A: 2

Q: And the Ratio [18]?
A: 2

Q: What about the Activity [19] of the same molecule?
A: inactive

Q: What about the Activity [20] of the same molecule?
A: inactive

Q: And the Activity [21]?
A: 3 log10CFU/ml

Q: What about the MIC [22] of the same molecule?
A: ≤ 0.03 µg/mL

Q: What about the Ka [23] of the same molecule?
A: 2.32e+06 M⁻¹

Q: And the Activity [24]?
A: Active

Q: And the Activity [25]?
A: inactive

Q: What about the Ratio [26] of the same molecule?
A: 2

Q: And the Ka [27]?
A: 1.32e+06 M⁻¹

Q: What about the MIC [28] of the same molecule?
A: 2 µg/mL (≈ 1.2 µM)

Q: What about the MIC [29] of the same molecule?
A: ≤ 0.03 µg/mL

Q: And the Activity [30]?
A: 2 log10CFU/ml

Q: What about the Vd [31] of the same molecule?
A: 5.12 L/kg

Q: What about the Ratio [32] of the same molecule?
A: 17.3

Q: And the Activity [33]?
A: Dose-Dependent Effect

Q: And the Activity [34]?
A: Active

Q: And the Activity [35]?
A: Active

Q: What about the MIC [36] of the same molecule?
A: ≤ 0.063 µg/mL

Q: And the MIC [37]?
A: 64 µg/mL (≈ 38.3 µM)

Q: What about the MIC [38] of the same molecule?
A: ≤ 0.03 µg/mL

Q: What about the Activity [39] of the same molecule?
A: Active

Q: And the Activity [40]?
A: Active
